In paper PMC2751816, “Functional, Non-Clonal IgM^a-Restricted B Cell Receptor Interactions with the HIV-1 Envelope gp41 Membrane Proximal External Region” (PLoS ONE, 2009):
“Also recorded” adds a separate entry of the source.

What was measured:
MZ and B1 B cells = conditions: gp41 MPER-immunized BALB/c mice; ref L. Verkoczy and B. Haynes, unpublished results; cited from earlier work
Description: Classical B-cell sAgs, like the S. aureus protein A subunit (SpA), can bind to and activate large populations of B cells, may cause selective deletion of MZ and B1 B cell subsets, and bind to B cells based on VH family usage, [52]. Similarly, sAg interactions of HIV-1 gp120 with human B cells have been described (reviewed in [37] and [53]–[56]), resulting in a VH3-skewed repertoire in HIV-1 infected individuals (reviewed in [57] and [58]–[60]). […] In this context, one obvious question arising from our studies is what are the physiological consequences of weak and/or incomplete signaling by gp41 MPER (Fig. 8). One possibility is that incomplete activation of B cells by low affinity MPER binding could suppress the T-independent component of MPER Ab respon ...

[1] = test system: protein tyrosine phosphorylation in BALB/c splenic B cells; test: Phosphotyrosine immunoblot of stimulated splenic B cells; assay type: cell-based, mouse (BALB/c); conditions: saturating tetramer 20 µg/10^6 cells, Fig. 8A
Experimental: To determine if gp41 MPER interactions with IgM^a could elicit the activating signals required for biological responses, we assessed BCR-proximal signaling events in BALB/c splenic B cells ligated with gp41 MPER tetramers. First, we determined the induction of protein tyrosine phosphorylation in cells incubated with saturating concentrations (20 µg/10^6 cells; see Fig. 1b) of gp41 MPER tetramer (Fig. 8A).
5×10^6 splenic BALB/c B cells were isolated by negative depletion of CD43-expressing cells with anti-mouse CD43 MACS beads (Miltenyi Biotech) to >95% purity, as assessed by flow cytometry. Purified B cells were equilibrated to 37°C in a humidified incubator and stimulated with gp41 MPER tetramers or F(ab)'2 anti-IgM (Jackson ImmunoResearch) in 5% FBS-containing DMEM media for various times. Whole cell extracts were made by lysing cell pellets in 1% NP-40 lysis buffer supplemented with PhosSTOP and complete, mini EDTA-free protease inhibitor tablets (Roche) and insoluble cellular debris was removed by centrifugation. Extracts were fractionated by reducing SDS PAGE on Novex Bis-Tris Mini gels (Invitrogen) and transferred to Invitrolon PVDF membranes (Invitrogen) using the Xcell II blot module. Primary Abs used were anti-phosphotyrosine clone 4G10 (Upstate) and anti-GAPDH (Millipore). Secondary Abs used were goat-anti-mouse IgG1 or IgG2a, both coupled to HRP (Jackson ImmunoResearch). […]

[2] = test system: naïve splenic C57BL/6 B cells; test: Flow cytometry: APC-labeled tetramer staining of C57BL/6 splenic B cells; assay type: cell-based, mouse (C57BL/6)
Experimental: (§1) N-biotinylated, linker/spacer-containing peptides used to make tetramers are detailed in Table S4 and Fig. 7A. Peptides were synthesized and purified using reverse-phase HPLC (Primm Biotechnology). To produce tetramerized forms of each peptides, 200 µM peptide and 6 µM APC-labeled streptavadin (SA) were combined at equal volumes, and mixtures were incubated at 4°C for 4 h. Unbound peptide was removed from peptide-APC complexes by centrifugal filtration using an Amicon Centriprep YM30 column (Millipore Corporation). Purified tetramer preparations were determined using the Micro BSA protein assay kit (Pierce Biotechnology).
(§2) FACS staining of single cell suspensions (≥2×10^6) was conducted using pre-mixed combinations of fluorochrome-labeled Abs and APC-conjugated B cell tetramers at empirically-determined optimal concentrations. All Abs were from BD unless otherwise stated. Primary antibodies used were: PerCP anti-B220, FITC anti-IgD, FITC, PE or PE-Cy7 anti-IgM, PE anti-CD5, FITC anti-CD11b, PE-Cy7 anti-CD19, FITC anti-CD21, PE-Cy7 anti-CD23 (eBiosciences), and PE-Cy7 anti-CD93 (eBiosciences). Other reagents included biotinylated Abs against dump channel markers: Thy1 (Abcam), F4/80 (Abcam), CD11c, Gr-1, TER-119, and NK-1.1, secondary staining SA-Texas Red conjugate; v-amine live/dead violet dye (Molecular Probes), and Fc block (anti-CD16/32).
Staining was conducted at 4°C in several sequential steps in FACS staining buffer (1X PBS with 2% FCS, 0.1% NaN3), washing twice between steps. Cells were first incubated with v-amine live/dead dye for 15 min, then stained with APC-labeled tetramers for 30 min (and in some experiments, cold tetramer was incubated at 10 fold molar excess for 1 h, prior to staining with APC-labeled tetramers). Cells were then stained with Fc block, followed by incubation with combinations of primary Abs, and secondary staining with SA-Texas Red, each for 30 min. Data (≥2.5×10^5 events/sample) were acquired using an LSRII flow cytometer and Cell Quest software (BD Immunocytometry systems). FACS Analysis was performed using FlowJo software (Tree Star). […]

[3] = test system: splenic B cells, BALB/c congenic (CB17) (IgH^b); test: Flow cytometry: tetramer staining of splenic B cells from BALB/c congenic CB17 (IgH^b) mice; assay type: cell-based, mouse (CB17); conditions: BALB/c mice homozygous for Igh^b; Fig. 5
Experimental: as §1
Female C57BL/6, BALB/c, B6Igh^a, and CB17 (BALBc Igh^b) inbred mouse strains (8–12 wks of age) were purchased from Charles River Laboratories. All mice were housed in the Duke University Animal Facility in a pathogen-free environment with 12 h light/dark cycles at 20–25°C under AALAC guidelines and in accordance with all Institutional Animal Care and Use Committee and Duke University Institutional Biosafety Committee-approved animal protocols. […]
FACS staining of single cell suspensions (≥2×10^6) was conducted using pre-mixed combinations of fluorochrome-labeled Abs and APC-conjugated B cell tetramers at empirically-determined optimal concentrations. […]

[4] = test system: naïve splenic BALB/c B cells; test: Flow cytometry: APC-labeled tetramer staining of BALB/c splenic B cells; assay type: cell-based, mouse (BALB/c)
Experimental: as §1, §2
(§3) Staining was conducted at 4°C in several sequential steps in FACS staining buffer (1X PBS with 2% FCS, 0.1% NaN3), washing twice between steps. Cells were first incubated with v-amine live/dead dye for 15 min, then stained with APC-labeled tetramers for 30 min (and in some experiments, cold tetramer was incubated at 10 fold molar excess for 1 h, prior to staining with APC-labeled tetramers). Cells were then stained with Fc block, followed by incubation with combinations of primary Abs, and secondary staining with SA-Texas Red, each for 30 min. Data (≥2.5×10^5 events/sample) were acquired using an LSRII flow cytometer and Cell Quest software (BD Immunocytometry systems). FACS Analysis was performed using FlowJo software (Tree Star). For analysis, cells were gated in the following order: single cells were gated based on fsc height vs. fsc area+ssc height vs. ssc profiles, lymphocytes were gated on fsc and ssc profile, residual dead cells were excluded by negative gating with v-amine live/dead dye, and irrelevant non-B cells were excluded by negative gating with dump markers.

[5] = test system: BALB/c B cells (gp41 MPER tetramer binding); test: Cold inhibition of APC-labeled gp41 MPER tetramer binding by unlabeled tetramers; assay type: cell-based, mouse (BALB/c)
Experimental: as §2, §3

QQEKNEQELLELDKWASLWN [gp41 MPER tetramer, (residues 659–678 of the HIV-1 envelope)]
B cell subset deletion after immunization (in words) (MZ and B1 B cells): partial deletion of MZ and B1 B cells in gp41 MPER-immunized BALB/c mice; also recorded: reduced MZ B cell populations in gp41 MPER-immunized BALB/c mice
protein tyrosine phosphorylation relative to anti-IgM ligation ([1]; lower than anti-IgM ligation of equal numbers of B cells): 2- to 3 fold
protein tyrosine phosphorylation (in words) ([1]; listed as gp41 MPER tetramers): induced rapid and reproducible patterns of protein phosphorylation; also recorded: only selected proteins were phosphorylated, including Syk, PI3K p110δ, PLC-γ2, and one or more of the Src kinase family members Lyn, Fyn, or Blk
MFI binding pattern (in words) ([2]; C57BL/6 B cells, Fig. 1A, 1C): gp41 MPER-reactive C57BL/6 B cells scattered further out across the APC channel
gp41 MPER reactivity among B cell subsets (in words) ([2]; C57BL/6 MZ and B1a B cells, Table S2): did not reveal increased levels of MPER binding by MZ and B1a B cells
percentage of tetramer-reactive B cells ([2]; total splenic B cells (CD19^+), naïve C57BL/6, APC tetramer 100 ng/10^6 splenocytes, above background without tetramer, Fig. 1A representative histogram): 0.1–0.3%
gp41 MPER binding in congenic mice (in words) [3]: lost gp41 MPER binding
MFI binding pattern (in words) ([4]; BALB/c B cell subsets, Fig. 1A, 2A, Table S1): the majority of MPER-reactive B cells within BALB/c subsets shifted as “low avidity” shoulders, with an additional, small fraction binding as a “higher-avidity” MFI tail
gp41 MPER reactivity among B cell subsets (in words) ([4]; BALB/c splenic and peritoneal subsets, MFI and frequency, Fig. 2, Tables S1, S2): gp41 MPER reactivity was strongest in marginal zone (MZ) and peritoneal B1 B cell subsets of BALB/c mice; also recorded: exhibited lower levels of gp41 MPER binding
fraction of all B cells labeled at saturating tetramer ([4]; BALB/c splenocytes, 10 µg/10^6 splenocytes, Fig. 1B): ~25%
tetramer amount giving saturating binding ([4]; BALB/c splenocytes, Fig. 1B): 10 µg/10^6 splenocytes
tetramer amount with highest gp41 MPER/scrambled gp41 MPER binding ratio ([4]; BALB/c splenocytes, sub-saturating, Fig. 1B): 100 ng/10^6 splenocytes
frequency of binding to BALB/c B cells ([4]; high-frequency binding, 100 ng tetramer/10^6 cells): ≥ 5%
gp41 MPER binding over wide tetramer concentration range (in words) ([4]; serial dilutions, MFI and fraction of labeled B cells, Fig. 1B): Elevated gp41 MPER binding to BALB/c cells, relative to C57BL/6 B cells, was observed at all concentrations of tetramers carrying MPER peptide; also recorded: substantially elevated relative to the scrambled peptide controls
percentage of tetramer-reactive B cells ([4]; total splenic B cells (CD19^+), naïve BALB/c, APC tetramer 100 ng/10^6 splenocytes, above background without tetramer, Fig. 1A representative histogram): ~7%
inhibition of APC-labeled gp41 MPER tetramer binding ([5]; pre-incubation with unlabeled competitor at 10-fold molar excess, 100 ng/10^6 splenocytes): > 90%
inhibition of APC-labeled gp41 MPER tetramer binding (in words) ([5]; unlabeled competitor tetramer pre-incubated, Fig. 4A,B, average of three experiments (4B)): Dose-dependent inhibition of APC-labeled gp41 MPER peptide binding was observed
